Assay in all cases: scanMAX kinase panel
Holding throughout (type): binding
Details in all cases: read-out: % Control; for remaining binding at 1 µM: 1000 nM

Assay [1] deals with T1, TESK1 (Homo sapiens, UniProt Q15569).
T1 construct: purchased DiscoverX (scanMAX panel)
The source says: (§1) Supplemental Table S2. scanMAXSM Kinome Assay Results. Complete tabulated data of all 468 kinases from the panel, including
(§2) 403 wild-type and 65 mutant isoforms. […] Cmpd 11 and Cmpd 24

For assay [2], the target named is T2, AXL (Homo sapiens, UniProt P30530).
T2 construct: purchased DiscoverX scanMAX
T2 sequence (P30530 26-894): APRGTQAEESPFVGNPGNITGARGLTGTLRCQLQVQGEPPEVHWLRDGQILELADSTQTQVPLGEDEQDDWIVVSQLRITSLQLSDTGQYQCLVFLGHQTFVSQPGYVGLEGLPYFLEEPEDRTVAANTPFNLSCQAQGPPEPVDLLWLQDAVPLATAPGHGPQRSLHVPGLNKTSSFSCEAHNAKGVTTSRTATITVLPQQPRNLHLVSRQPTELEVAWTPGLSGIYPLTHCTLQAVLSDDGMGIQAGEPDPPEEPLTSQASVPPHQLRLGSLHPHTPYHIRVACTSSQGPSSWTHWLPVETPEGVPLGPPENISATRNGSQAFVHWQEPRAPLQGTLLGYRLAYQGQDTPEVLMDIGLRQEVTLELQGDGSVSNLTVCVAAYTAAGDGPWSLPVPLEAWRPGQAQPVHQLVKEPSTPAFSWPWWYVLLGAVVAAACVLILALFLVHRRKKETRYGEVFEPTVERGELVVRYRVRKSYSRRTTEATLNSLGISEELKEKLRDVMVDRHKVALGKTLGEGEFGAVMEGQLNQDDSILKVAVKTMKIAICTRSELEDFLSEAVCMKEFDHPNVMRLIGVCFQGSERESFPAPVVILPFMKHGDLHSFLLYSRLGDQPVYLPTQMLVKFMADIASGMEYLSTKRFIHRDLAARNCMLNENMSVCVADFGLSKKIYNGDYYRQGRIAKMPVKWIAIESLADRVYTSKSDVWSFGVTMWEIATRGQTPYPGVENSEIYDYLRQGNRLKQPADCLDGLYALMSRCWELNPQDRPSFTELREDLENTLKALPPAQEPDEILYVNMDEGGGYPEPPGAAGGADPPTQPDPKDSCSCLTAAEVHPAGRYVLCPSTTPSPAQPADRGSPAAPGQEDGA
Source text: as §1, §2

Assay [3] addresses T3, MKNK2 (Homo sapiens, UniProt Q9HBH9).
T3 construct: purchased DiscoverX scanMAX
Source text: as §1, §2

Assay [4] concerns the target T4, RIOK2 (Homo sapiens, UniProt Q9BVS4).
T4 construct: purchased DiscoverX (scanMAX panel)
Source text: as §1, §2

In assay [5] the target is T5, AURKB (Homo sapiens, UniProt Q96GD4).
T5 construct: purchased DiscoverX scanMAX
Source text: as §1, §2

Assay [6] deals with T6, FLT3(K663Q) (Homo sapiens, UniProt P36888, K663Q).
T6 construct: purchased DiscoverX scanMAX
T6 sequence (P36888 27-993 K663Q): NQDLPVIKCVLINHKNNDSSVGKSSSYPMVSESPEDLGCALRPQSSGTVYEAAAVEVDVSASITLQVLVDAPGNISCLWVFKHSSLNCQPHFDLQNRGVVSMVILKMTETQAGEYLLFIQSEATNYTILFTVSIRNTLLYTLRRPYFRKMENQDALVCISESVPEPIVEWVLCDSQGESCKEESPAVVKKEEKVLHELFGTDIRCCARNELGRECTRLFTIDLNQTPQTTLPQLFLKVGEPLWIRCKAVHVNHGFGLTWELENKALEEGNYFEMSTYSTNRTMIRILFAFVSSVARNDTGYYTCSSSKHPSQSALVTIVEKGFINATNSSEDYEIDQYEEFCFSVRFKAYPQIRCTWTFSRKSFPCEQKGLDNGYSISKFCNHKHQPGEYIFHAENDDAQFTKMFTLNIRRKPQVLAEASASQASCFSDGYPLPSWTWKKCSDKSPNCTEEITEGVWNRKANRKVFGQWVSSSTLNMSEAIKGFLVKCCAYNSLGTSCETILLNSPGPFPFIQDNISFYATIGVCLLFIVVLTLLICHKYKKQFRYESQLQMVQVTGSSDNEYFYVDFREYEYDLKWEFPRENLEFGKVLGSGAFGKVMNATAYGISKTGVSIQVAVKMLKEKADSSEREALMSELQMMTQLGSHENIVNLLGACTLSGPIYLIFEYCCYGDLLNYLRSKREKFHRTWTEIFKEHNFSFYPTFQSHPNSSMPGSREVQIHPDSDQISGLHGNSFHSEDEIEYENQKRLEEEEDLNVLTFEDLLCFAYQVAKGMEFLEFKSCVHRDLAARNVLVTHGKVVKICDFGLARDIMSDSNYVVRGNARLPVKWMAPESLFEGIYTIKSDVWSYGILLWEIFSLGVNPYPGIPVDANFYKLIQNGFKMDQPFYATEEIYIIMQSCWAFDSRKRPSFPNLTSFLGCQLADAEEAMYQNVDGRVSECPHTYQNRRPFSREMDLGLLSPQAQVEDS
Source text: as §1, §2

Assay [7] deals with T7, KIT(V559D) (Homo sapiens, UniProt P10721, V559D).
T7 construct: purchased DiscoverX scanMAX
Source text: as §1, §2

In assay [8] the target is T8, FLT3-autoinhibited (Homo sapiens, UniProt P36888).
T8 construct: purchased DiscoverX scanMAX
T8 sequence (P36888 564-993 limits assumed): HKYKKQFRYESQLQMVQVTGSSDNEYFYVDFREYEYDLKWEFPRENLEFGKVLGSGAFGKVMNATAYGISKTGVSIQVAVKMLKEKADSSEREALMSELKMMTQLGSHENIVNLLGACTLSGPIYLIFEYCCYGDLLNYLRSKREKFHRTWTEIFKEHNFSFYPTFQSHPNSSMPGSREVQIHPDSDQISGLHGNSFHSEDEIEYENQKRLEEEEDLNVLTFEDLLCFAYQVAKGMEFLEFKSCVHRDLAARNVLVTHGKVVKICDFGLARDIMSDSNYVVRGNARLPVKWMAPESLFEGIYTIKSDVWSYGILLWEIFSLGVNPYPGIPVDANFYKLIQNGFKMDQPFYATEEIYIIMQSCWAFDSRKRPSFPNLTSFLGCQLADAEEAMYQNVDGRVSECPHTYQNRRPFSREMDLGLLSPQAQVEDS
Source text: as §1, §2

Assay [9] deals with T9, PDGFRB (Homo sapiens, UniProt P09619).
T9 construct: purchased DiscoverX scanMAX
Source text: as §1, §2

T4 sequence (Q9BVS4 whole entry): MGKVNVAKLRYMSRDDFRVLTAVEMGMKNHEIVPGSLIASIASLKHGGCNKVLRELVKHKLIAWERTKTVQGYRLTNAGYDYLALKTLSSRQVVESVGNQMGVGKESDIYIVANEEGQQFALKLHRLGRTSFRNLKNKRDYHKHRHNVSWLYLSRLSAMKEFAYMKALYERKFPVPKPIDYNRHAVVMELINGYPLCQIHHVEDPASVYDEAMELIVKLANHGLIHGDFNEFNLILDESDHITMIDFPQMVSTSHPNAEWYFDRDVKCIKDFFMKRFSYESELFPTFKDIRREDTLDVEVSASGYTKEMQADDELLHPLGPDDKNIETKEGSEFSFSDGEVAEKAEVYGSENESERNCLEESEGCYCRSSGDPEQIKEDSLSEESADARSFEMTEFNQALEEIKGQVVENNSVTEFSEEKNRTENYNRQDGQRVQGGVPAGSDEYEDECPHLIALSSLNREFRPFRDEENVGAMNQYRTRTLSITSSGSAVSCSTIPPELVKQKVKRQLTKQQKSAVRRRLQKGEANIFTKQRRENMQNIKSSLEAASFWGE
T5 sequence (Q96GD4 whole entry): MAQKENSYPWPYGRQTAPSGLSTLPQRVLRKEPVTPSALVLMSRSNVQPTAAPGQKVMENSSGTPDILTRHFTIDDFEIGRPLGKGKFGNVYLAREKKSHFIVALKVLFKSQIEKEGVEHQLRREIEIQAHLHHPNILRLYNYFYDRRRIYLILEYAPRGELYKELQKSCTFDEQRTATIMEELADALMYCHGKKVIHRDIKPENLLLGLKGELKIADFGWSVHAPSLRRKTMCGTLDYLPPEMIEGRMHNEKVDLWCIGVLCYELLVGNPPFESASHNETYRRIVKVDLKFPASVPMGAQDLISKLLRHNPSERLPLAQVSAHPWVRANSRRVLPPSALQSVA
T3 sequence (Q9HBH9 whole entry): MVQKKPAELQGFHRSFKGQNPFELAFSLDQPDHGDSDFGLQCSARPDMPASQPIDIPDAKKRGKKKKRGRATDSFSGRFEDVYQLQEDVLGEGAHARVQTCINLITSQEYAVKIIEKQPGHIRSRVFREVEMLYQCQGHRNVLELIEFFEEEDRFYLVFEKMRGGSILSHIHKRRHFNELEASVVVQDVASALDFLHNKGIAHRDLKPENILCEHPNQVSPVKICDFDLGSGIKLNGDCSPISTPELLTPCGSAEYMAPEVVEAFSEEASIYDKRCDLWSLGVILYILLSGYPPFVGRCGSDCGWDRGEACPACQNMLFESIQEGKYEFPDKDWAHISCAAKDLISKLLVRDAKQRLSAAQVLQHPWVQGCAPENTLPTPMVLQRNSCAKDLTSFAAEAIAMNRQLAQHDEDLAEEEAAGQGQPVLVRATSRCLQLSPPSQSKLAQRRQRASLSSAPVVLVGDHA
T9 sequence (P09619 33-1106): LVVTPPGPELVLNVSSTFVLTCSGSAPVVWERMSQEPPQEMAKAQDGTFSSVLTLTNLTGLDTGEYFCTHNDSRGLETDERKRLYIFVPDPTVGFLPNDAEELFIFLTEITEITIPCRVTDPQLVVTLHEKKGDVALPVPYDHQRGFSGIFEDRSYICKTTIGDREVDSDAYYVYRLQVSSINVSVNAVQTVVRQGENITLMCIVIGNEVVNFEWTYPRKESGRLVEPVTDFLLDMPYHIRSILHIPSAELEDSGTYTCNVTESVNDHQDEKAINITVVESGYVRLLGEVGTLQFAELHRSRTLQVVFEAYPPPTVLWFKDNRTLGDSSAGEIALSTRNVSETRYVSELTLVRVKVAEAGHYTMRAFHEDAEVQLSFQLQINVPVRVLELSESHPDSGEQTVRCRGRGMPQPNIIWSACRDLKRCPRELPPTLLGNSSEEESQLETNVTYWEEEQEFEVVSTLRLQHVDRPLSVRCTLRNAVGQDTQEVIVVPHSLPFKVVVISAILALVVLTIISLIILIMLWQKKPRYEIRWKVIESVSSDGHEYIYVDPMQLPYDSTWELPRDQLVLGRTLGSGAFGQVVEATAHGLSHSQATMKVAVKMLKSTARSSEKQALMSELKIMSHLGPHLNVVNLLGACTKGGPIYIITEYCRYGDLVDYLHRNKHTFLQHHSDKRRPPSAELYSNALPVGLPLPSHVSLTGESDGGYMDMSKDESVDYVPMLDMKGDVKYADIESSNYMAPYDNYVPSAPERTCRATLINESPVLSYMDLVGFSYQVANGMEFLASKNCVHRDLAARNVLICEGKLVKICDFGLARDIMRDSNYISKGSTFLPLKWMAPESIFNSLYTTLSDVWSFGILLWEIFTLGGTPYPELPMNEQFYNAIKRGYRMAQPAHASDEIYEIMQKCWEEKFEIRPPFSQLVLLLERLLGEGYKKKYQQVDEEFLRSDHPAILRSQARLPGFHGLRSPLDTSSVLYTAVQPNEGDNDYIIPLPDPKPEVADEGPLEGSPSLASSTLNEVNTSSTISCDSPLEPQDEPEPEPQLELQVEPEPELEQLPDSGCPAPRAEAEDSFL
T7 sequence (P10721 26-976 V559D): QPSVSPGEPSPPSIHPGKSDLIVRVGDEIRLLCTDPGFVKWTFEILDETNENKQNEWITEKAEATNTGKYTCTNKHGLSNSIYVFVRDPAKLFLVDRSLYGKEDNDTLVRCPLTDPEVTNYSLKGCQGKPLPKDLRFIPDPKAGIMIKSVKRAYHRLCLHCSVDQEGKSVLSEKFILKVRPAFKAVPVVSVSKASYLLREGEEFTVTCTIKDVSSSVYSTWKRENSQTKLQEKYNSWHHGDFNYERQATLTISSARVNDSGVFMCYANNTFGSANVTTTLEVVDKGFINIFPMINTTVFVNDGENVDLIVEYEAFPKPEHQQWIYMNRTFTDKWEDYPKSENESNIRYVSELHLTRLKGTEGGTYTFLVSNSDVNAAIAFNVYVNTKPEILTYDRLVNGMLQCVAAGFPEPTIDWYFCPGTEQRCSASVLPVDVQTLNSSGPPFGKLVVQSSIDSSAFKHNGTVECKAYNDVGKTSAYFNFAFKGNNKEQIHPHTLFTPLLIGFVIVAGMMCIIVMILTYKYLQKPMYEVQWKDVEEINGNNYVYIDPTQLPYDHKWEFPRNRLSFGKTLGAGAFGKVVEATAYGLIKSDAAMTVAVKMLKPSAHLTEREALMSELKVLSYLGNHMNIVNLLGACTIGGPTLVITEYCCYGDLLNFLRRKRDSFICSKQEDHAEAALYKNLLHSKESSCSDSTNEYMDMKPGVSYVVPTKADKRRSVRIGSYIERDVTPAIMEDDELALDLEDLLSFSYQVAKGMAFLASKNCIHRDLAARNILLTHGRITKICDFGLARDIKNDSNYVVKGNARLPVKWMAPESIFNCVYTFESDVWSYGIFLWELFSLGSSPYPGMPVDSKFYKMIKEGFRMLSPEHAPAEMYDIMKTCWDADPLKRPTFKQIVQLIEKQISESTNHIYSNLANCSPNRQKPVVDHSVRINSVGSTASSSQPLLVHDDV
T1 sequence (Q15569 whole entry): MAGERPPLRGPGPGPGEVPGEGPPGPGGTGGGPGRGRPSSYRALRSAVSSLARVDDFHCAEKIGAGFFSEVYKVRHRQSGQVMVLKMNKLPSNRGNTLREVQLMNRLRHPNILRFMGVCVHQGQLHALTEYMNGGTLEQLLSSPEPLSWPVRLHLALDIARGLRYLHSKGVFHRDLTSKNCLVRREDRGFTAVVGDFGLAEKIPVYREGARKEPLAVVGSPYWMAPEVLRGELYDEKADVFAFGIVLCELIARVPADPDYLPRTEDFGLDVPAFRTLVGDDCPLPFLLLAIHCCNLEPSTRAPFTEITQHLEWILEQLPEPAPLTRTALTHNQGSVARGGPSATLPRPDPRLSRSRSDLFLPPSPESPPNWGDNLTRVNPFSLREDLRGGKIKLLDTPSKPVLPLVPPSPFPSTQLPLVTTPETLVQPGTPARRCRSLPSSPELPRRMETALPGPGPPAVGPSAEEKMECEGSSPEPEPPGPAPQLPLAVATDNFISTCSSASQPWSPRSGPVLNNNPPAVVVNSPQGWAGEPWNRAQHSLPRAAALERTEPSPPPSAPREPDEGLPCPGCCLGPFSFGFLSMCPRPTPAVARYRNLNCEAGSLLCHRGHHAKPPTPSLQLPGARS

`Cc1cc(NC(=O)[C@H](O)c2cccc(F)c2)ccc1-c1cn(C)c2ncnc(N)c12` [Compound 11, (R)-N-(4-(4-amino-7-methyl-7H-pyrrolo[2,3-d]pyrimidin-5-yl)-3-methylphenyl)-2-(3-fluorophenyl)-2-hydroxy acetamide]: the remaining binding at 1 µM was found to be 15% in assay [1]; 56% in assay [2]; 1.2% in assay [3]; 20% in [4]; 24% in assay [5]; 26% in assay [6]. Further, the values for the remaining binding at 1 µM in assay [7], in assay [8] and in [9] were 27%, 57% and 40%, respectively.
Turning to `Cc1nc(N)c2c(-c3ccc(NC(=O)[C@H](O)c4cccc(F)c4)cc3C)cn(C)c2n1` [Compound 24], the remaining binding at 1 µM in assay [1] was 100%; in assay [2], 100%; in assay [3] it was 58%; in [4], 89%; in [5], 90%; in [6], 83%. Moreover, the remaining binding at 1 µM in assay [7] came to 72%; in assay [8] it was 100%; in [9] it was 100%.
As to `Cc1nc(N)c2c(-c3ccc(NC(=O)[C@H](O)c4cccc(C(F)(F)F)c4)cc3C)cn(C)c2n1` [Compound 26], the remaining binding at 0.1 µM was found to be 97% in [1] (100 nM); 99% in assay [2] (100 nM); 88% in [3] (100 nM); 91% in [4] (100 nM); 81% in [5] (100 nM); 51% in [6] (100 nM). Also, the remaining binding at 0.1 µM in [7] (100 nM) turned out to be 96%; in assay [8] (100 nM), 100%; in assay [9] (100 nM), 100%. Moreover, the remaining binding at 1 µM came out at 99% in [1]; 0.7% in [2]; 3.9% in [3]; 92% in assay [4]; 70% in assay [5]; 20% in [6]. The remaining binding at 1 µM amounted to 0.45% in assay [7], 65% in assay [8] and 11% in assay [9].
